Experimental data: paper PMC4449373 (Clinical Pharmacokinetics, 2015)
Where two headings read alike, the source gives them in different places.

Tests used:
[1] = Population pharmacokinetic analysis; type: in vivo, human
[2] = adult subjects with T2D, cited from earlier work

CCCCCCCCCCCCCCCC(=O)N[C@@H](CCC(=O)NCCCC[C@H](NC(=O)[C@H](C)NC(=O)[C@H](C)NC(=O)[C@H](CCC(N)=O)NC(=O)CNC(=O)[C@H](CCC(=O)O)NC(=O)[C@H](CC(C)C)NC(=O)[C@H](Cc1ccc(O)cc1)NC(=O)[C@H](CO)NC(=O)[C@H](CO)NC(=O)[C@@H](NC(=O)[C@H](CC(=O)O)NC(=O)[C@H](CO)NC(=O)[C@@H](NC(=O)[C@H](Cc1ccccc1)NC(=O)[C@@H](NC(=O)CNC(=O)[C@H](CCC(=O)O)NC(=O)[C@H](C)NC(=O)[C@@H](N)Cc1cnc[nH]1)[C@@H](C)O)[C@@H](C)O)C(C)C)C(=O)N[C@@H](CCC(=O)O)C(=O)N[C@@H](Cc1ccccc1)C(=O)N[C@H](C(=O)N[C@@H](C)C(=O)N[C@@H](Cc1c[nH]c2ccccc12)C(=O)N[C@@H](CC(C)C)C(=O)N[C@H](C(=O)N[C@@H](CCCNC(=N)N)C(=O)NCC(=O)N[C@@H](CCCNC(=N)N)C(=O)NCC(=O)O)C(C)C)[C@@H](C)CC)C(=O)O [liraglutide]
Decrease in AUC24, pediatric age group ([1]; compared with an adult subject of the same weight and gender): 10%
Geometric mean AUC24 lower at highest observed body weight (216 kg) ([1]; compared with exposure at reference body weight of 90 kg): 56%
Lower drug exposure (AUC24) for males ([1]; compared with the reference female subject of the same body weight): 31%
Mean decrease in glycated hemoglobin [HbA1c] ([2]; liraglutide 1.2 mg and 1.8 mg alone or in combination with other oral antidiabetic drugs and/or insulin): up to −1.5%
Safety and tolerability profile ([2]; liraglutide 1.2 mg and 1.8 mg): acceptable safety and tolerability profile
Mean weight loss ([2]; liraglutide 1.2 mg): ≤ -2.9 kg
Mean weight loss ([2]; liraglutide 1.8 mg): up to −3.4 kg
